The values below come from PubChem BioAssay (NCI).

Among the test systems are SK-OV-3 ovarian; HCC-2998 colon; NCI-H522 lung; EKVX NSCLC; SF-295 CNS; K-562 leukemia; MALME-3M melanoma; IGROV1 ovarian; MDA-MB-435.
Common to all, as to assay: inhibition of tumour cell growth, NCI panel, 48 h

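The compound was tested at five concentrations on cells cultured in 96-well plates, with a 48-hour exposure period. Here, GI50 denotes the concentration required for 50% inhibition of growth. TGI: total growth inhibition.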 Bounds are passed on as bounds.

`OCC(O)COc1c(Cl)cc(Cl)cc1Cl` (stereo unspecified): the TGI with SK-OV-3 ovarian was > 100 µM; in the assay on HCC-2998 colon, > 100 µM; with NCI-H522 lung it was > 100 µM; in the assay on EKVX NSCLC it was > 100 µM; in the assay on SF-295 CNS it was > 100 µM; with K-562 leukemia, > 66.1 µM. Besides, the TGI in the assay with MALME-3M melanoma and with IGROV1 ovarian was > 100 µM each time.

With `c1ccc2c(c1)Sc1ccccc1N2C1CN2CCC1CC2` (stereo unspecified), the TGI came to 35.4 µM with SK-OV-3 ovarian; 29 µM in the assay on HCC-2998 colon; 38.9 µM with NCI-H522 lung; 27.7 µM in the assay with EKVX NSCLC; 32.2 µM in the assay with SF-295 CNS; 29.5 µM in the assay on K-562 leukemia. The figures for the TGI with MALME-3M melanoma and in the assay with IGROV1 ovarian were 30.5 µM and 42.3 µM, respectively.

As for `Nc1c(C(=O)NC23CC4CC(CC(C4)C2)C3)[n+]([O-])c2ccccc2[n+]1[O-]`, the TGI in the assay with SK-OV-3 ovarian, in the assay with HCC-2998 colon, in the assay on NCI-H522 lung, in the assay with EKVX NSCLC, in the assay with SF-295 CNS and with K-562 leukemia was > 100 µM in each case. The TGI in the assay on MALME-3M melanoma and in the assay on IGROV1 ovarian was > 100 µM each time.

Take `Cn1nc2ccc3nccc(NCCNCCO)c3c2n1`: the TGI in the assay with SK-OV-3 ovarian, with HCC-2998 colon, with NCI-H522 lung, in the assay with SF-295 CNS, with K-562 leukemia and in the assay on MALME-3M melanoma was > 100 µM each time. In addition, in the assay with IGROV1 ovarian, the TGI was > 100 µM.

In the case of `C[N+](C)(C)CC(=O)N/N=C(/Cc1nc2ccc([N+](=O)[O-])cc2[nH]c1=O)C(=O)Nc1cc(C(F)(F)F)ccc1Cl`, the TGI in the assay with SK-OV-3 ovarian, with HCC-2998 colon, in the assay on NCI-H522 lung, in the assay with EKVX NSCLC, with SF-295 CNS and with K-562 leukemia was > 100 µM in each case. Moreover, the TGI in the assay with MALME-3M melanoma and in the assay on IGROV1 ovarian was > 100 µM each time.

Take `O=C(CCN1CCCC1)Nc1ccc2c(NCCc3ccccc3)c3ccccc3nc2c1`: the GI50 was 0.422 µM with SK-OV-3 ovarian; 0.51 µM with HCC-2998 colon; 0.308 µM in the assay on NCI-H522 lung; 0.463 µM in the assay on EKVX NSCLC; 0.381 µM in the assay with SF-295 CNS; 0.416 µM in the assay on MDA-MB-435. The values for the GI50 in the assay on MALME-3M melanoma and with IGROV1 ovarian were 0.384 µM and 0.366 µM, respectively. In addition, the TGI with SK-OV-3 ovarian came to 2.07 µM; in the assay on HCC-2998 colon, 1.98 µM; in the assay on NCI-H522 lung, 1.27 µM; in the assay with EKVX NSCLC it was 2.16 µM; with SF-295 CNS, 1.53 µM; with MDA-MB-435, 1.52 µM. In addition, the results for the TGI with MALME-3M melanoma and with IGROV1 ovarian were 1.45 µM and 1.63 µM, respectively.

As to `COc1ccc(OC(C)C(=O)O)c2c1CCCC2=O` (stereo unspecified), the TGI with SK-OV-3 ovarian, in the assay on HCC-2998 colon, in the assay with NCI-H522 lung, in the assay on EKVX NSCLC, in the assay with SF-295 CNS and in the assay on K-562 leukemia was > 100 µM in each case. Also, the TGI in the assay with MALME-3M melanoma and in the assay on IGROV1 ovarian was > 100 µM throughout.

Consider `O=C(/C=C/c1ccccc1O)c1cccc2ccccc12`, for which the TGI in the assay on SK-OV-3 ovarian, in the assay with HCC-2998 colon, in the assay with NCI-H522 lung, with EKVX NSCLC, in the assay with SF-295 CNS and in the assay on K-562 leukemia was > 100 µM each time. Moreover, the TGI in the assay on MALME-3M melanoma and in the assay with IGROV1 ovarian was > 100 µM throughout.

Turning to `Cc1ccc(NC(=O)/C(=N/NC(=O)C[N+](C)(C)C)c2nc3ccccc3[nH]c2=O)cc1`, the TGI with SK-OV-3 ovarian, in the assay with HCC-2998 colon, with EKVX NSCLC, in the assay on SF-295 CNS, with MALME-3M melanoma and with IGROV1 ovarian was > 100 µM throughout.

As to `O=C1CCNC(=O)NC1`, the TGI with SK-OV-3 ovarian, in the assay with NCI-H522 lung, with EKVX NSCLC, in the assay with SF-295 CNS, with K-562 leukemia and in the assay on MALME-3M melanoma was > 100 µM throughout. For the same molecule, the TGI in the assay with IGROV1 ovarian is > 100 µM.

For the molecule `C[N+](C)(C)CC(CC(=O)[O-])C1CC1` (stereo unspecified), the TGI in the assay with SK-OV-3 ovarian, in the assay with NCI-H522 lung, in the assay on EKVX NSCLC, in the assay on SF-295 CNS, in the assay with K-562 leukemia and with MALME-3M melanoma was > 100 µM each time. For the same molecule, the TGI with IGROV1 ovarian is > 100 µM.

In the case of `Cc1ccc(/C=C/C(=O)c2ccc([N+](=O)[O-])cc2)cc1`, the TGI in the assay with SK-OV-3 ovarian, in the assay with HCC-2998 colon, in the assay with NCI-H522 lung, in the assay with EKVX NSCLC, with SF-295 CNS and in the assay on K-562 leukemia was > 100 µM in each case. The TGI in the assay on MALME-3M melanoma and in the assay with IGROV1 ovarian was > 100 µM each time.

For the molecule `CN(C(=O)C12C3C4C1C1C2C3C41C(O)C(C)(C)C)C(C)(C)C` (stereo unspecified), the TGI in the assay on SK-OV-3 ovarian, with HCC-2998 colon, in the assay on NCI-H522 lung, with EKVX NSCLC, with SF-295 CNS and in the assay on K-562 leukemia was > 100 µM in each case. For the same molecule, the TGI in the assay with MALME-3M melanoma and with IGROV1 ovarian was > 100 µM in each case.

For the molecule `C=C1CCC2C(C)(CO)C(O)CCC2(C)C1C/C=C1/CCOC1=O` (stereo unspecified), the TGI in the assay with SK-OV-3 ovarian, in the assay on HCC-2998 colon, in the assay with NCI-H522 lung, with EKVX NSCLC, in the assay on SF-295 CNS and in the assay on K-562 leukemia was > 100 µM in each case. Moreover, the TGI with MALME-3M melanoma and in the assay with IGROV1 ovarian was > 100 µM throughout.

For `CCOC(=O)C(=O)Nc1ccccc1OCC`, the TGI in the assay on SK-OV-3 ovarian, with HCC-2998 colon, in the assay with NCI-H522 lung, in the assay with EKVX NSCLC, in the assay with SF-295 CNS and with K-562 leukemia was > 100 µM each time. Moreover, the TGI in the assay with MALME-3M melanoma and with IGROV1 ovarian was > 100 µM each time.

In the case of `ClC1c2ccccc2C2(c3ccccc3)OOC1(c1ccccc1)O2` (stereo unspecified), the TGI was found to be 6.24 µM in the assay with HCC-2998 colon; 0.8 µM in the assay with NCI-H522 lung; 4.62 µM in the assay on EKVX NSCLC; 5.85 µM with SF-295 CNS; 7.14 µM in the assay on MALME-3M melanoma.

`CCOc1ccc(NCC2CC/C(=C\c3ccc(Cl)cc3)C2=O)cc1` (stereo unspecified): the TGI is > 100 µM with SK-OV-3 ovarian; 18 µM with HCC-2998 colon; 13.9 µM with NCI-H522 lung; > 73.8 µM with EKVX NSCLC; > 100 µM with SF-295 CNS; 34.9 µM with K-562 leukemia. The results for the TGI in the assay with MALME-3M melanoma and in the assay with IGROV1 ovarian were > 87.5 µM and > 50.6 µM, respectively.

For the molecule `COc1cc(C(O)C(=O)c2cnc3cc([N+](=O)[O-])ccc3n2)ccc1O` (stereo unspecified), the TGI in the assay on SK-OV-3 ovarian, in the assay on HCC-2998 colon, in the assay with EKVX NSCLC, with SF-295 CNS, in the assay on K-562 leukemia and in the assay with MALME-3M melanoma was > 100 µM in each case. Further, the TGI in the assay on IGROV1 ovarian is > 100 µM.

`CC(O)C(NC(=O)c1ccccc1)C(=O)N(Cc1ccccc1)Cc1ccccc1` (stereo unspecified): the TGI is > 100 µM with SK-OV-3 ovarian; > 100 µM with HCC-2998 colon; 26.5 µM in the assay on NCI-H522 lung; > 100 µM in the assay on EKVX NSCLC; > 100 µM with SF-295 CNS; > 100 µM with K-562 leukemia. Also, the TGI in the assay with MALME-3M melanoma and in the assay with IGROV1 ovarian was > 100 µM in each case.

For the molecule `CNc1ccc([N+](=O)[O-])c2c(NCCCN(C)C)ccnc12`, the TGI in the assay with SK-OV-3 ovarian, in the assay on HCC-2998 colon, in the assay with NCI-H522 lung, with EKVX NSCLC, in the assay on SF-295 CNS and in the assay on K-562 leukemia was > 100 µM throughout. Moreover, the TGI with MALME-3M melanoma and with IGROV1 ovarian was > 100 µM each time.

As for `N#Cc1cc([N+](=O)[O-])ccc1NC(=O)C(=O)C(C(=O)c1ccc2ccccc2c1)C1OCc2ccccc21` (stereo unspecified), the TGI in the assay on SK-OV-3 ovarian was > 100 µM; in the assay on HCC-2998 colon, 22.7 µM; in the assay with NCI-H522 lung it was 13.8 µM; in the assay on EKVX NSCLC, 37.4 µM; in the assay on SF-295 CNS, 23.9 µM; in the assay on K-562 leukemia it was 65.2 µM. The figures for the TGI in the assay on MALME-3M melanoma and with IGROV1 ovarian were 26.8 µM and 61.6 µM, respectively.

As to `NC(CCc1ncc(-c2ccccc2)s1)C(=O)O` (stereo unspecified), the TGI with SK-OV-3 ovarian, with HCC-2998 colon, in the assay with NCI-H522 lung, with EKVX NSCLC, with SF-295 CNS and with K-562 leukemia was > 100 µM each time. Moreover, the TGI with MALME-3M melanoma and in the assay on IGROV1 ovarian was > 100 µM in each case.

`CC(=O)OCCOCNC(=S)N/N=C(\C)c1cccs1`: the TGI with SK-OV-3 ovarian, in the assay with HCC-2998 colon, in the assay on NCI-H522 lung, in the assay with EKVX NSCLC, in the assay with SF-295 CNS and with K-562 leukemia was > 100 µM each time. Besides, the TGI in the assay with MALME-3M melanoma and in the assay with IGROV1 ovarian was > 100 µM throughout.

With `CCCC(=O)c1ccc(=O)n(C)c1`, the TGI in the assay with SK-OV-3 ovarian, with HCC-2998 colon, in the assay on NCI-H522 lung, with EKVX NSCLC, with SF-295 CNS and with K-562 leukemia was > 100 µM each time. Moreover, the TGI with MALME-3M melanoma and in the assay with IGROV1 ovarian was > 100 µM throughout.
